# Measurements from ChEMBL document CHEMBL5465560, “Selectivity Literature for EUbOPEN Chemogenomic Library” (2024).
# Columns and labels:
# [1] = target: Mitogen-activated protein kinase 11 (Homo sapiens) (UniProt Q15759); conditions: at 10 µM
# [2] = target: Serine/threonine-protein kinase 26 (Homo sapiens, UniProt Q9P289); experiment: Selectivity interaction (Kinase panel (DSF assay)) EUB0001558a STK26
# [3] = target: Serine/threonine-protein kinase PAK 6 (Homo sapiens) (UniProt Q9NQU5); experiment: Selectivity interaction (ProQinase) EUB0000171b PAK6; conditions: at 5 µM
# [4] = target: T1, Tyrosine-protein kinase receptor TYRO3 (Homo sapiens) (UniProt Q06418); experiment: Selectivity interaction (KinomeScan (DiscoverX)) EUB0000666a TYRO3; conditions: at 10 µM
# T1 sequence (whole entry): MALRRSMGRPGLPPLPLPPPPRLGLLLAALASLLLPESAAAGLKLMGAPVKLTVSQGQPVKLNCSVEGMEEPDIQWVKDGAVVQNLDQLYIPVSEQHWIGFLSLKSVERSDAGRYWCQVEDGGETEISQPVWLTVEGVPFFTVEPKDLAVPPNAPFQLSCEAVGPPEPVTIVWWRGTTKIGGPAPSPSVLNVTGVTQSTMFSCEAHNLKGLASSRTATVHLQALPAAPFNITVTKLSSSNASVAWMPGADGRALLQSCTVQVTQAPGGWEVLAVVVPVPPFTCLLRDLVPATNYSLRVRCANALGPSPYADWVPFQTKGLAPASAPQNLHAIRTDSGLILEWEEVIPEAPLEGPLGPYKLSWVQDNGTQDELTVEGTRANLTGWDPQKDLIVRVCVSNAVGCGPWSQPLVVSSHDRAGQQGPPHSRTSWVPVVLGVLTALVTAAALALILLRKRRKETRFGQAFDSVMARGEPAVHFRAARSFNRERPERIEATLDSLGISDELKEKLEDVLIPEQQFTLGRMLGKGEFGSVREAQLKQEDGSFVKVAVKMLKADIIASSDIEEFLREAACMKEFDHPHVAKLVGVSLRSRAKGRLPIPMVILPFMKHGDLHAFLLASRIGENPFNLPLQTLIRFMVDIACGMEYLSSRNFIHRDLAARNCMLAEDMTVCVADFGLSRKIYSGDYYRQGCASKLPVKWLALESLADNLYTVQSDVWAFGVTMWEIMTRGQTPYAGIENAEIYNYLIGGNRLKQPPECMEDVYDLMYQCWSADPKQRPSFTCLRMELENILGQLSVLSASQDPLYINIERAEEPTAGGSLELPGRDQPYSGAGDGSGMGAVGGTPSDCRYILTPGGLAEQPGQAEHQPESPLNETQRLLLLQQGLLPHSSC
# [5] = target: Mitogen-activated protein kinase kinase kinase 8 (Homo sapiens, UniProt P41279); experiment: Selectivity interaction (Kinase panel (33PanQinase(R) Activity Assay)) EUB0000877a MAP3K8
# Chain of Mitogen-activated protein kinase kinase kinase 8 (P41279 whole entry): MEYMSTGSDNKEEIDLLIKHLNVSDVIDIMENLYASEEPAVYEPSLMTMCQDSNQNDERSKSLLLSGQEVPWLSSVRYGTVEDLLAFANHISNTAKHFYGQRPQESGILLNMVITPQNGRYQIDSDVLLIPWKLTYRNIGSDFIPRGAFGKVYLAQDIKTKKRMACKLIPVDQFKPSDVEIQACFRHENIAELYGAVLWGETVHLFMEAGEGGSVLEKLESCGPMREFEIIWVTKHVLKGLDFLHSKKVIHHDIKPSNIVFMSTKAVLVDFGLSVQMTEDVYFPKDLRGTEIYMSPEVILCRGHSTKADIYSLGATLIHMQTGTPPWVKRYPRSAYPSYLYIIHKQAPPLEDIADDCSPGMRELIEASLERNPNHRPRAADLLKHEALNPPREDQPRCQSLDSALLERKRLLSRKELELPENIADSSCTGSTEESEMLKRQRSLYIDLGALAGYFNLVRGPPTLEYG
# [6] = target: Cyclin-dependent kinase 14 (Homo sapiens) (UniProt O94921); experiment: Selectivity interaction (ActivX KiNativ screen (kinase selectivity in THP-1 cell lysates)) EUB0000639a CDK14; format: subcellular; conditions: lysate, at 0.2 µM
# [7] = target: Tyrosine-protein kinase BTK (Homo sapiens, UniProt Q06187); experiment: Selectivity interaction (ActivX KiNativ screen (kinase selectivity in THP-1 cell lysates)) EUB0000639a BTK; format: subcellular; conditions: lysate, at 1 µM
# [8] = target: Casein kinase II subunit alpha' (Homo sapiens) (UniProt P19784); experiment: Selectivity interaction (KinomeScan (DiscoverX)) EUB0000045b CSNK2A2
# Chain of Casein kinase II subunit alpha' (Homo sapiens) (P19784 whole entry, looked up): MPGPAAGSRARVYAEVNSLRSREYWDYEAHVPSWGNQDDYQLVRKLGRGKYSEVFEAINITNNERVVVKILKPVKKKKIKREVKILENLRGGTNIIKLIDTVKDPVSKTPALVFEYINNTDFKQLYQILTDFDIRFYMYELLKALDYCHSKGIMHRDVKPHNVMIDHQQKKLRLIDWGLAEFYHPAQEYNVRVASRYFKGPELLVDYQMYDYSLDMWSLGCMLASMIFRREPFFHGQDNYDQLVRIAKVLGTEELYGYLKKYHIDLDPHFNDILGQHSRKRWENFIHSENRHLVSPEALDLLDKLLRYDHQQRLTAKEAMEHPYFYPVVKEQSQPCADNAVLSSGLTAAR
# [9] = target: Tyrosine-protein kinase ABL1 (Homo sapiens, UniProt P00519); experiment: Selectivity interaction (KinomeScan (DiscoverX)) EUB0000618a ABL1; conditions: at 10 µM
# Chain of Tyrosine-protein kinase ABL1 (P00519 whole entry): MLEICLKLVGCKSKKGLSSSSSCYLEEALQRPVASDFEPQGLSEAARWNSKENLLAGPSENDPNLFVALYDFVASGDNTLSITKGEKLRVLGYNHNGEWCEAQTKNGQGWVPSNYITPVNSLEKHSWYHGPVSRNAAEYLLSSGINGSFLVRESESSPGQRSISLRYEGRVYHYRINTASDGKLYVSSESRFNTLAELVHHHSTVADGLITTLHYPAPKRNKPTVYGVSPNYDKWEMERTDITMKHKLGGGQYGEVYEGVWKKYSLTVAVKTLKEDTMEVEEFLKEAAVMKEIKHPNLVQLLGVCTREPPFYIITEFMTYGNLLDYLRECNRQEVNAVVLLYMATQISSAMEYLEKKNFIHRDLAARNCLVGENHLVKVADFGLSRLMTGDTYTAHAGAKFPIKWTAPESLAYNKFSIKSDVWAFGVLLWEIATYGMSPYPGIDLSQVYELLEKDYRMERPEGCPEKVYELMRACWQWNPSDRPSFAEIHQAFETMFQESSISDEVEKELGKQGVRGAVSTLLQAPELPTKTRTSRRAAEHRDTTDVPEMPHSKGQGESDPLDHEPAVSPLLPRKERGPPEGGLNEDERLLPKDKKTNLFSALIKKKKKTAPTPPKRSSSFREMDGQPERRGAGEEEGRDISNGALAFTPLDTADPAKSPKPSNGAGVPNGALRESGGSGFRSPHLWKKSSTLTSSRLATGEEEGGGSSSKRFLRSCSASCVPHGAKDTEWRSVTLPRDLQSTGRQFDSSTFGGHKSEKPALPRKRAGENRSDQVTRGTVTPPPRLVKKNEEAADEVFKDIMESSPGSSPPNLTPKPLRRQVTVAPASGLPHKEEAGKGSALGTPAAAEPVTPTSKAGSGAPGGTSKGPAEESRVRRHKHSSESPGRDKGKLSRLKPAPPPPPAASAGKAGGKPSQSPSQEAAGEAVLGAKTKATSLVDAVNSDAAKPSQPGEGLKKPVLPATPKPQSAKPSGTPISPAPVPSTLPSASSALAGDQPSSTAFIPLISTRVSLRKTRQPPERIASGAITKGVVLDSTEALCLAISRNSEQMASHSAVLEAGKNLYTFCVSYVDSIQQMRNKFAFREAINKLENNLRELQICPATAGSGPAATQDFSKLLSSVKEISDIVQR
# [10] = tested on: Leucine-rich repeat serine/threonine-protein kinase 2 (Homo sapiens), Q5S007 [G2019S]; experiment: (§1) Selectivity interaction (Ambit KINOMEscan and KiNATiv profiling in Jurkat cells) EUB0000090b LRRK2; format: cell-based; conditions: at 1 µM
# Chain of Leucine-rich repeat serine/threonine-protein kinase 2 (Homo sapiens), Q5S007 [G2019S] (Q5S007 whole entry G2019S): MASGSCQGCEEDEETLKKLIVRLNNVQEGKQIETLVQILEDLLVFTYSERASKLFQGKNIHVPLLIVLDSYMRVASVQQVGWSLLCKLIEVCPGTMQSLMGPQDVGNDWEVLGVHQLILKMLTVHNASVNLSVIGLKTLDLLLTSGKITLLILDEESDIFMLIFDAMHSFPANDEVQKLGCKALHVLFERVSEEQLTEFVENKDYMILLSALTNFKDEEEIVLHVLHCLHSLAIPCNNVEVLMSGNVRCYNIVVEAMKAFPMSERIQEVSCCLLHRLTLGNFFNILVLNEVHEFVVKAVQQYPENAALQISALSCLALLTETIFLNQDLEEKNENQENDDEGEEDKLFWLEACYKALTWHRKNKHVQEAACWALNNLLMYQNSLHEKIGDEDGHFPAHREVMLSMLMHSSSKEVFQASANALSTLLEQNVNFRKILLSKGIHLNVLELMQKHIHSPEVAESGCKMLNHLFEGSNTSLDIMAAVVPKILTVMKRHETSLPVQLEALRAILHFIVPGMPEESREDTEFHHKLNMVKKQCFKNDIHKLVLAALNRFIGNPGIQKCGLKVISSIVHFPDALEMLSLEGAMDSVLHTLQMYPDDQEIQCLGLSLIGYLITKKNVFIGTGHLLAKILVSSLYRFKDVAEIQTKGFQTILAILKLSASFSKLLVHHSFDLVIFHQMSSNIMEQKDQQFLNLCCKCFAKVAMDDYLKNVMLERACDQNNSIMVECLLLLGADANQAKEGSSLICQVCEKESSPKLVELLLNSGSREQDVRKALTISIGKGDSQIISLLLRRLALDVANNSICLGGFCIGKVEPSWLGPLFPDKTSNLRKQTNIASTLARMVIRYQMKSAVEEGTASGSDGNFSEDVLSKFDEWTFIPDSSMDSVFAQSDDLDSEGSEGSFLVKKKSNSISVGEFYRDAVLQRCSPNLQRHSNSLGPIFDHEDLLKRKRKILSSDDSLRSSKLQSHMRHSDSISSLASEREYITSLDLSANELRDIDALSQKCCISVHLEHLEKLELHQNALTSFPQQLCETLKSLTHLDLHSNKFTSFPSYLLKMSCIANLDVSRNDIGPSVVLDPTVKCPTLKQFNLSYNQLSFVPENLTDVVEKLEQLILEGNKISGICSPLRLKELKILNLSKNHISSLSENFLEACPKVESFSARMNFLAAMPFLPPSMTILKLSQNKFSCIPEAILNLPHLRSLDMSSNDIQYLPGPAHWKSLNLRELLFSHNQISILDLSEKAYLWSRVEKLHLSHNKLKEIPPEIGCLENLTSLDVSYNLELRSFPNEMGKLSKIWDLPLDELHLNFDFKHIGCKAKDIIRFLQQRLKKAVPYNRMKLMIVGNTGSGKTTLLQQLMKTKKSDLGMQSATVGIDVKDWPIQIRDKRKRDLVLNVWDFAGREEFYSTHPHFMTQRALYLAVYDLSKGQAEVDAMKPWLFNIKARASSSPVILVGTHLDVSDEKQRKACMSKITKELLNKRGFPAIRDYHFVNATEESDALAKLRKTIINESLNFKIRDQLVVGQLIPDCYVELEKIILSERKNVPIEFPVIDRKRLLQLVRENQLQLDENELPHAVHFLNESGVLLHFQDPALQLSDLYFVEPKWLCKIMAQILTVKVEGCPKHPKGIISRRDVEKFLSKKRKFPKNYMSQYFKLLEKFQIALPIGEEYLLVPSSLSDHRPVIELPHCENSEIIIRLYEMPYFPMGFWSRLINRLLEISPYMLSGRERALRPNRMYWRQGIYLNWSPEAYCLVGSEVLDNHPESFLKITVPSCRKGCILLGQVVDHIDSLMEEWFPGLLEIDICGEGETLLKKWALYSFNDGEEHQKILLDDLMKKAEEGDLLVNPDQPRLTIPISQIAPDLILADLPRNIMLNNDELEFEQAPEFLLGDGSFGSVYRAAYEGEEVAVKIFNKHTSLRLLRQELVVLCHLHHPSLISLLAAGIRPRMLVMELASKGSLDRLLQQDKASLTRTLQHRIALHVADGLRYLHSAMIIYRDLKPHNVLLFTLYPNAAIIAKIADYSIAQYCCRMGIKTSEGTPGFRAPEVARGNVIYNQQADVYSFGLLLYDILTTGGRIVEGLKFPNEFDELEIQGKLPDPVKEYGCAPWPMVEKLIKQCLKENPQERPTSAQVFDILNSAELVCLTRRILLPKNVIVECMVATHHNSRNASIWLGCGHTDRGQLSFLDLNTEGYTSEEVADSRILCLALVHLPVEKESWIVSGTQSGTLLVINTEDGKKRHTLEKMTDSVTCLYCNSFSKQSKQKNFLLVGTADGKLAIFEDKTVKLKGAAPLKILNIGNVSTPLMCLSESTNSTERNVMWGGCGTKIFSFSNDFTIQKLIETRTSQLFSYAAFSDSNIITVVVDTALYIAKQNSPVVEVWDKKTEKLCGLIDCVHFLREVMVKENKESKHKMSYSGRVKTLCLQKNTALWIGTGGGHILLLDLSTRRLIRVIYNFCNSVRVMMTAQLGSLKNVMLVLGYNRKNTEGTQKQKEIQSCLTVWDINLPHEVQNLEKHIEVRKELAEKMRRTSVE
# [11] = target: Leucine-rich repeat serine/threonine-protein kinase 2 (Homo sapiens, UniProt Q5S007); experiment: as §1; format: cell-based; conditions: at 1 µM
# Chain of Leucine-rich repeat serine/threonine-protein kinase 2 (Q5S007 whole entry): as the sequence (Q5S007 whole entry G2019S) above, with S2019G counted along it
# [12] = target: Calcium/calmodulin-dependent protein kinase type 1 (Homo sapiens) (UniProt Q14012); experiment: Selectivity interaction (ActivX KiNativ screen (ex vivo kinase selectivity in human PBMCs)) EUB0001619a CAMK1; format: cell-based; conditions: PBMC, at 1 µM
# Chain of Serine/threonine-protein kinase 26 (Q9P289 2-416 limits assumed): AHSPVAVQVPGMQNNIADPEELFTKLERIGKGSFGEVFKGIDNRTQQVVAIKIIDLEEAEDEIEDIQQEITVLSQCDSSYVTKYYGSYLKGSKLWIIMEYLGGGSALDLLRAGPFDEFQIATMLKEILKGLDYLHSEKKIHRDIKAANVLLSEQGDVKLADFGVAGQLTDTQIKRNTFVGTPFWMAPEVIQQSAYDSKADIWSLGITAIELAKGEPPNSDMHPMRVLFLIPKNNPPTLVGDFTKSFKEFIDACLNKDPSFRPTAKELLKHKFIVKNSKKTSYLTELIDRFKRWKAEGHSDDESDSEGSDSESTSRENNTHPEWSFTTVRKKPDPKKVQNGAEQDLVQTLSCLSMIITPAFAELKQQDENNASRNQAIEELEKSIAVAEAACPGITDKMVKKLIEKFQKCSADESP
structure (smiles),measurement,setting,value
CCN(CC)CCCCNc1ncc2cc(-c3cc(OC)cc(OC)c3)c(NC(=O)NC(C)(C)C)nc2n1,% of control,[1],100%
CC(C)(O)[C@H](F)CN1Cc2cc(NC(=O)c3cnn4cccnc34)c(N3CCOCC3)cc2C1=O,dTM,[2],0.4 K
C=CC(=O)Nc1cccc(C(=O)Nc2ccc(Nc3cc(-c4[nH]c(SC)nc4C)ccn3)cc2)c1,% of control,[3],67%
O=C(NOC[C@H](O)CO)c1ccc(F)c(F)c1Nc1ccc(I)cc1F,% of control,[4],80%
CCC(=O)N1CC[C@H](Nc2ncnc3c2CN(c2cnc(OC)c(C(F)(F)F)c2)CC3)C1 [LENIOLISIB],IC50,[5],> 10 µM
CC[C@@H]1[C@H](F)C(=O)N[C@@H]1COc1nccc2cc(C(N)=O)c(OC)cc12 [ZIMLOVISERTIB],% of inhibition,[6],-7.5%
same,% of inhibition,[7],-7.2%
C=CC(=O)Nc1cc(-n2c(=O)ccc3cnc4ccc(-c5ccc(NS(C)(=O)=O)cc5)cc4c32)ccc1C,% of control,[8]; at 1 µM,100%
same,% of control,[8]; at 10 µM,67%
O[C@H]1CC[C@H](Nc2ncc3nc(Nc4c(F)cc(F)cc4F)n([C@H]4CCOC4)c3n2)CC1,% of control,[9],34%
CN(C)C/C=C/C(=O)Nc1ccc(C(=O)N2CCCC(Nc3ncc(Cl)c(-c4c[nH]c5ccccc45)n3)C2)cc1 (stereo not drawn),% of control,[10],92%
same,% of control,[11],84%
N#Cc1cccc(-c2c[nH]c3ncnc(N4CCOCC4)c23)c1,% of inhibition,[12],2%
